Measured values: patent US20230014181A1, “CULTURE SYSTEM AND METHODS FOR IMPROVED MODELING OF NEUROLOGICAL CONDITIONS” (Genentech, Inc., priority 2021, published 2023)
Counter-ions that a name gives are not always drawn. Like-named read-outs stand apart in the source and are kept apart here.

Tests used:
[1] = tested on: human iPSC neurons and astrocytes treated with 5 μM sAβ42s; assay: Focused small molecule screen, double culture (neuron, astrocyte), rescue from sAβ42s toxicity, high content imaging; assay type: cell-based; settings: Homo sapiens, iPSC, double culture, 5 μM sAβ42s; for percent rescue from sAβ42s toxicity at 6.25 µM: 6.25 μM compound; for percent rescue from sAβ42s toxicity at 12.5 µM: 12.5 μM compound; for percent rescue from sAβ42s toxicity at 25 µM: 25 μM compound; for percent rescue from sAβ42s toxicity at 50 µM: 50 μM compound
Description: (§1) FIGS. 11A-11D show synapse % rescue versus MAP2% rescue (FIGS. 11A-11B) and beta III tubulin % rescue versus MAP2% rescue (FIGS. 11C-11D), in neurons and astrocytes (FIGS. 11A and 11C) or neurons, astrocytes, and microglia (FIGS. 11B and 11D) treated with 5 μM sAβ42s and small molecules from a focused screen of known neuroprotective agents at multiple concentrations (50 μM, 25 μM, 12.5 μM and 6.25 μM (double culture), 50 μM, 12.5 μM, 3.1 μM and 0.78 μM (triple culture). Small molecules that prevented toxicity in dendrites (MAP2), synapses (Synapsin 1/2), cell count (CUX2), or axons ([…]) at or above 30% were considered hits (red dotted line).
Neurons from both NSC lines were evaluated by immunofluorescence staining. Briefly, cells were fixed with 4% PFA and 4% sucrose at room temperature for 20 minutes using Bravo automation. Fixed cells were then washed 2 times with PBS using Biotek 406 microplate washer (Beckman Coulter), followed by permeabilization and blocking by incubation with a solution containing 1×PBS, 0.1% Triton X-100, 2% donkey serum, and 1% BSA at room temperature for 30 minutes. Blocking solution was removed and cells were incubated with primary antibodies in blocking solution overnight at 4° C. After washing 6 times with PBS on Biotek 406 cell plate washer (Beckman Coulter), cells were then incubated with fluorophore-conjugated secondary antibodies for 1 hour at room temperature in the dark to avoid photobleaching. Cells were then washed 6 more times in with PBS before imaging. Fluorescent images were captured using IN Cell 6000 confocal microscope (GE Healthcare Life Sciences). The image analysis was performed with IN Cell 6000 analysis software.
Prior to experimentation, media volume in wells containing neurons was equalized with liquid handling automation (Bravo) in order to ensure precise control of concentrations. All Aβ42 oligomers, anti-Aβ, small molecules, inflammatory cytokines were prepared at 10× concentration and added to Neuronal Culture Media at an appropriate volume. For the repeated dosing experiments, the media were refreshed 50% at each dosing first, before adding Aβ42 oligomers, and/or anti-Aβ antibody at the specified final concentration.
(§2) In double (neuron, astrocyte) and triple (neuron, astrocyte, microglia) cultures, each small molecule listed in Table 1 was tested in the AD model paradigm at up to four concentrations. Molecules that characterized ≥30% rescue in any of the four measurements of dendrites area (MAP2), synapses count (synapsin 1/2), or cell count (CUX2), or axon area (Beta III Tubulin; “BT3”)) were classified as hits (FIGS. 11A-11D, Table 2, and Table 3).

[2] = tested on: human iPSC neurons, astrocytes and microglia treated with 5 μM sAβ42s; assay: Focused small molecule screen, triple culture (neuron, astrocyte, microglia), rescue from sAβ42s toxicity; assay type: cell-based; settings: Homo sapiens, iPSC; for percent rescue from sAβ42s toxicity at 50 µM: 50.00 μM compound; for percent rescue from sAβ42s toxicity at 0.78 µM: 0.78 μM compound; for percent rescue from sAβ42s toxicity at 3.13 µM: 3.13 μM compound; for percent rescue from sAβ42s toxicity at 12.5 µM: 12.50 μM compound
Description: as §1
Frozen cells were thawed and immediately seeded at a density of 8,000 cells/well of a 384-well plate onto 8-week old neuron-astrocyte co-culture in Microglia media (BrainPhys™ neuronal media (Stem Cell Technologies) supplemented with 1× B27 with vitamin A, 1×N2 Plus Media Supplement (R&D Systems), 20 ng/mL BDNF, 20 ng/mL GDNF, 1 mM creatine, 200 nM L-ascorbic acid, 1 μg/mL mouse laminin, 0.5 mM GlutaMAX™ (Thermofisher), 0.5× penicillin-streptomycin, 1× normocin, 5 ng/mL TGF-β, 100 ng/mL human IL-34, 1.5 μg/mL cholesterol, 1 ng/mL gondoic acid, 100 ng/mL oleic acid, 460 μM thioglycerol, 1× insulin-transferrin-selenium, 25 ng/mL rhM-CSF, 5.4 μg/mL human insulin solution).
as §2

| Compound | percent rescue from sAβ42s toxicity at 6.25 µM ([1]; read-out: % B3T rescue) [%] | percent rescue from sAβ42s toxicity at 6.25 µM ([1]; read-out: % Cux2 rescue) [%] | percent rescue from sAβ42s toxicity at 6.25 µM ([1]; read-out: % MAP2 rescue) [%] | percent rescue from sAβ42s toxicity at 6.25 µM ([1]; read-out: % Synapse rescue) [%] | percent rescue from sAβ42s toxicity at 25 µM ([1]; read-out: % B3T rescue) [%] | percent rescue from sAβ42s toxicity at 25 µM ([1]; read-out: % Cux2 rescue) [%] | percent rescue from sAβ42s toxicity at 25 µM ([1]; read-out: % MAP2 rescue) [%] | percent rescue from sAβ42s toxicity at 25 µM ([1]; read-out: % Synapse rescue) [%] | percent rescue from sAβ42s toxicity at 50 µM ([1]; read-out: % B3T rescue) [%] | percent rescue from sAβ42s toxicity at 50 µM ([1]; read-out: % Cux2 rescue) [%] | percent rescue from sAβ42s toxicity at 50 µM ([1]; read-out: % MAP2 rescue) [%] | percent rescue from sAβ42s toxicity at 50 µM ([1]; read-out: % Synapse rescue) [%] | percent rescue from sAβ42s toxicity at 50 µM ([2]; read-out: % B3T rescue) [%] | percent rescue from sAβ42s toxicity at 50 µM ([2]; read-out: % MAP2 rescue) [%] | percent rescue from sAβ42s toxicity at 50 µM ([2]; read-out: % Synapse rescue) [%] | percent rescue from sAβ42s toxicity at 0.78 µM ([2]; read-out: % B3T rescue) [%] | percent rescue from sAβ42s toxicity at 0.78 µM ([2]; read-out: % MAP2 rescue) [%] | percent rescue from sAβ42s toxicity at 0.78 µM ([2]; read-out: % Synapse rescue) [%] | also measured |
| --- | --- | --- | --- | --- | --- | --- | --- | --- | --- | --- | --- | --- | --- | --- | --- | --- | --- | --- | --- |
| CCCC[C@@H](C=O)NC(=O)[C@H](CC(C)C)NC(=O)OCc1ccccc1 [Calpeptin] | 9 | 70 | 22 | 6 | 7 | 91 | 39 | 9 | 20 | 96 | 36 | 15 | 66 | 34 | 34 | – | – | – | percent rescue from sAβ42s toxicity at 12.5 µM ([1]; read-out: % B3T rescue): 4%; percent rescue from sAβ42s toxicity at 12.5 µM ([1]; read-out: % Cux2 rescue): 79%; percent rescue from sAβ42s toxicity at 12.5 µM ([1]; read-out: % MAP2 rescue): 27%; percent rescue from sAβ42s toxicity at 12.5 µM ([1]; read-out: % Synapse rescue): 11% |
| COc1cccc2c1C(=O)c1c(O)c3c(c(O)c1C2=O)C[C@@](O)(C(C)=O)C[C@@H]3O[C@H]1C[C@H](N)[C@H](O)[C@H](C)O1 [Daunorubicin hydrochloride] | – | – | – | – | 73 | -23 | -122 | -27 | 101 | -39 | -124 | -27 | – | – | – | 68 | 74 | 52 | – |
| N#Cc1ccnc(Nc2cc(C3CCN(C4COC4)CC3)cc(N3CCC(F)(F)C3)n2)c1 [GNE-3511] | 15 | 18 | 32 | 7 | 17 | 36 | 49 | 14 | 58 | 81 | 87 | 47 | 65 | 66 | 56 | 85 | 91 | 79 | percent rescue from sAβ42s toxicity at 3.13 µM ([2]; read-out: % B3T rescue): 81%; percent rescue from sAβ42s toxicity at 3.13 µM ([2]; read-out: % MAP2 rescue): 95%; percent rescue from sAβ42s toxicity at 3.13 µM ([2]; read-out: % Synapse rescue): 77%; percent rescue from sAβ42s toxicity at 12.5 µM ([2]; read-out: % B3T rescue): 82%; percent rescue from sAβ42s toxicity at 12.5 µM ([2]; read-out: % MAP2 rescue): 102%; percent rescue from sAβ42s toxicity at 12.5 µM ([2]; read-out: % Synapse rescue): 81% |
